Measured values: patent US9150543B2, “Substituted indolyl alkyl amino derivatives as inhibitors of histone deacetylase” (Janssen Pharmaceutica N. V., priority 2004, dated 2015)

What was measured:
[1] = system: A2780 ovarian carcinoma cells; assay: Antiproliferative activity on A2780 cells, MTT (C.2); assay type: cell-based; settings: Homo sapiens, 96 h, four days of incubation, read-out: Cellular activity pIC50 C.2 (converted)
Method: All compounds tested were dissolved in DMSO and further dilutions were made in culture medium. Final DMSO concentrations never exceeded 0.1% (v/v) in cell proliferation assays. Controls contained A2780 cells and DMSO without compound and blanks contained DMSO but no cells. MTT was dissolved at 5 mg/ml in PBS. A glycine buffer comprised of 0.1 M glycine and 0.1 M NaCl buffered to pH 10.5 with NaOH (1N) was prepared (all reagents were from Merck).
The human A2780 ovarian carcinoma cells (a kind gift from Dr. T. C. Hamilton [Fox Chase Cancer Centre, Pennsylvania, USA]) were cultured in RPMI 1640 medium supplemented with 2 mM L-glutamine, 50 μg/ml gentamicin and 10% fetal calf serum. Cells were routinely kept as monolayer cultures at 37° C. in a humidified 5% CO2 atmosphere. Cells were passaged once a week using a trypsin/EDTA solution at a split ratio of 1:40. All media and supplements were obtained from Life Technologies. Cells were free of mycoplasma contamination as determined using the Gen-Probe Mycoplasma Tissue Culture kit (supplier: BioMerieux).
Cells were seeded in NUNC™ 96-well culture plates (Supplier: Life Technologies) and allowed to adhere to the plastic overnight. Densities used for plating were 1500 cells per well in a total volume of 200 μl medium. After cell adhesion to the plates, medium was changed and drugs and/or solvents were added to a final volume of 200 μl. Following four days of incubation, medium was replaced by 200 μl fresh medium and cell density and viability was assessed using an MTT-based assay. To each well, 25 μl MTT solution was added and the cells were further incubated for 2 hours at 37° C. The medium was then carefully aspirated and the blue MTT-formazan product was solubilized by addition of 25 μl glycine buffer followed by 100 μl of DMSO. […] Within an experiment, the results for each experimental condition are the mean of 3 replicate wells. For initial screening purposes, compounds were tested at a single fixed concentration of 10^−6 M. For active compounds, the experiments were repeated to establish full concentration-response curves. For each experiment, controls (containing no drug) and a blank incubation (containing no cells or drugs) were run in parallel. The blank value was subtracted from all control and sample values. For each sample, the mean value for cell growth (in absorbance units) was expressed as a percentage of the mean value for cell growth of the control. […] Herein the effects of test compounds are expressed as pIC50 (the negative log value of the IC50-value)(see Table F-3).

[2] = biological target: histone deacetylase (HeLa nuclear extracts); assay: In vitro assay for inhibition of histone deacetylase with fluorescent-labelled substrate (C.1.b); assay type: biochemical; settings: Fluor de Lys substrate
Method: The HDAC Fluorescent Activity Assay/Drug Discovery Kit of Biomol (cat.No: AK-500-0001) was used. The HDAC Fluorescent Activity Assay is based on the Fluor de Lys (Fluorogenic Histone deAcetylase Lysyl) substrate and developer combination. The Fluor de Lys substrate, comprises an acetylated lysine side chain. Deacetylation of the substrate sensitizes the substrate so that, in the second step, treatment with the Fluor de Lys developer produces a fluorophore.
After 30 min, 1 volume of the developer was added. […] For each experiment, controls (containing HeLa nuclear extract and buffer), a blank incubation (containing buffer but no HeLa nuclear extract) and samples (containing compound dissolved in DMSO and further diluted in buffer and HeLa nuclear extract) were run in parallel. In first instance, compounds were tested at a concentration of 10^−5M. […] All sample were tested 4 times. In each test the blank value was subtracted from both the control and the sample values. The control sample represented 100% of substrate deactylation. For each sample the fluorescence was expressed as a percentage of the mean value of the controls. […] Herein the effects of test compounds are expressed as pIC50 (the negative log value of the IC50-value) (see Table F-3).

| SMILES | IC50 [1] [nM] | Enzymatic activity pIC50 C.1.b [2] |
| --- | --- | --- |
| O=C(NO)c1cnc(N2CCC(CNCc3cn(C4CCCC4)c4ccccc34)CC2)nc1 [Compound 46] | 10 | 9.0 |
| O=C(NO)c1cnc(N2CCC(CNCc3cn(CC4CC4)c4ccccc34)CC2)nc1 [Compound 48] | 6.31 | >9.0 |
| Cn1cc(CNCC2CCN(c3ncc(C(=O)NO)cn3)CC2)c2cc(F)ccc21 [Compound 51] | 10 | 9.8 |
| CCCn1cc(CNCC2CCN(c3ncc(C(=O)NO)cn3)CC2)c2cc(F)ccc21 [Compound 52] | 7.94 | 10.3 |
| CC(C)n1cc(CNCC2CCN(c3ncc(C(=O)NO)cn3)CC2)c2ccccc21 [Compound 53] | 10 | 10.0 |
| O=C(NO)c1cnc(N2CCC(CNCc3cn(Cc4ccccc4)c4ccccc34)CC2)nc1 [Compound 54] | 12.6 | 10.2 |
| Cn1cc(CNCC2CCN(c3ncc(C(=O)NO)cn3)CC2)c2ccc(Cl)cc21 [Compound 56] | 25.1 | 9.2 |
| Cn1cc(CNCC2CCN(c3ncc(C(=O)NO)cn3)CC2)c2c(Cl)cccc21 [Compound 58] | 1580 | 10.0 |
| Cn1cc(CNCC2CCN(c3ncc(C(=O)NO)cn3)CC2)c2cc3c(cc21)OCO3 [Compound 59] | 20 | 9.0 |
| CCn1cc(CNCC2CCN(c3ncc(C(=O)NO)cn3)CC2)c2ccc(OC)cc21 [Compound 61] | 25.1 | 8.9 |
| CCCn1cc(CNCC2CCN(c3ncc(C(=O)NO)cn3)CC2)c2ccccc21 [Compound 62] | 10 | 9.5 |
| O=C(NO)c1cnc(N2CCC(CNCc3cccc4cc[nH]c34)CC2)nc1 [Compound 63] | 31.6 | >9.0 |
| O=C(NO)c1cnc(N2CCC(CNCc3cccc4[nH]ccc34)CC2)nc1 [Compound 64] | 15.8 | 8.9 |
| CCC(=O)N(CCc1cn(C)c2ccc(Cl)cc12)CC1CCN(c2ncc(C(=O)NO)cn2)CC1 [Compound 69] | 200 | 7.6 |
| CCC(=O)N(CCc1cn(C)c2ccccc12)CC1CCN(c2ncc(C(=O)NO)cn2)CC1 [Compound 70] | 158 | 8.5 |
| CCC(=O)N(CCc1cn(C)c2cc(OC)ccc12)CC1CCN(c2ncc(C(=O)NO)cn2)CC1 [Compound 71] | 316 | 7.5 |
| CC(=O)N(Cc1cn(C)c2ccccc12)CC1CCN(c2ncc(C(=O)NO)cn2)CC1 [Compound 72] | 158 | 7.9 |
| CCN(CCc1cn(C)c2cc(OC)ccc12)CC1CCN(c2ncc(C(=O)NO)cn2)CC1 [Compound 73] | 79.4 | 7.9 |
| COc1ccc2c(c1)c(CCNCC1CCN(c3ncc(C(=O)NO)cn3)CC1)cn2C [Compound 74] | 79.4 | 8.2 |
| CCCn1cc(CCNCC2CCN(c3ncc(C(=O)NO)cn3)CC2)c2ccc(OC)cc21 [Compound 75] | 79.4 | 7.3 |
| Cc1[nH]c2ccccc2c1CCNCC1CCN(c2ncc(C(=O)NO)cn2)CC1 [Compound 76] | 200 | 7.8 |
| Cn1cc(CNCC2CCN(c3ccc(C(=O)NO)cn3)CC2)c2ccccc21 [Compound 80] | 79.4 | 7.8 |
| Cn1cc(CNCC2CCN(c3ncc(C(=O)NO)cn3)CC2)c2ccc(F)cc21 [Compound 81] | 31.6 | 8.9 |
